Results from US20090247495A1, “CU[…] AND USES THEREOF” (priority 2007, published 2009).
Entries after “also recorded” stand apart in the source; their conditions may differ.

What was measured:
Raf/Mek/Erk pathway = assay: Western blot of phosphorylated c-Raf, Mek1/2, Erk1/2 and Elk-1 in K562 cells; assay type: cell-based, human; conditions: 50 μM
Method: K562 leukemia cells were serum starved for 18 hours prior to cucurbitacin B treatment. The cells were incubated at a 75-mm culture flask filled with 10 ml growth medium (RPMI with 10% FBS and 1% PS) at the cell density of 1×10^5 cells/ml in the presence or absence of cucurbitacin B for various time intervals. The drug treatment were terminated by centrifugation at 1500 rpm for 5 minutes and the cells were rinsed twice with phosphate-buffered saline and lysed at 4° C. in a lysis buffer containing 50 mM Tris-HCl, pH7.5, […], 5 mM EDTA, 40 mM NaP2O7, 1% Triton X-100, 1 mM dithiothreitol, 200 μM Na3VO4, 100 μM phenylmethysufonyl fluoride, 2 μg/ml leupeptin, 4 μg/ml aprotinin and 0.7 μg/ml pepstatin. The insoluble protein lysate were removed by centrifugation for 10 minutes at 13000 rpm. Fifteen micrograms of protein lysate was resolved using SDS-polyacryamide gel electrophoresis (PAGE) (usually 8%-12% polyacrylamide gel) and then subjected to western blot anaylsis. Western blots were performed with antibodies specific for phosphorylated and total Stat3, c-Raf, Mek, and Erk. […]
In order to further investigate if cucurbitacin B block the Stat3 activation is truly through Erk pathway in K562 cells, the ability of cucurbitacin B to inhibit the Ras/Raf/Mek/Erk pathway was determined by measuring Ras-GTP, phosphorylation of c-Raf, Mek1/2, Erk1/2 and Elk-1 in K562 cells. […]

Panc 02.13 = assay: MTT cell cytotoxicity assay, Panc 02.13; assay type: cell-based; conditions: Homo sapiens, 48 hours
Method: (§1) Three human pancreatic cancer cell lines (Panc-1, Panc 02.13, Panc 10.05) were purchased from American Type Culture Collection (ATCC, Manassas, Va., USA). Panc 02.13 and Panc 10.05 were grown in RPMI 1640 medium supplemented with 15% FBS, 4.5 g/L glucose, 10 mM HEPES, and 1.0 mM sodium pyruvate and 10 Units/ml human insulin; while PANC-1 was grown in Dulbecco's modified Eagle's medium supplemented with 10% FBS. They were maintained in a humidified 5% CO2 atmosphere at 37° C. and the culture medium was changed once in 2 days.
(§2) The cytotoxic effect of CuB on these three cancer cell lines were determined using MTT (3-[4,5-dimethylthiazol-2-yl]-2,5-diphenyl tetrazolium bromide) labeled cell cytotoxicity assay. A total of 1×10^4 cells were seeded into a 96-well plate for 24 hours prior to cucurbitacin B (CuB) treatment. They were then treated with different dosages of CuB for 48 hours. After the treatment, 20 μl of MTT (5 mg/ml) was added to each well and incubated for 4 hrs. Then the medium was discarded and 100 μl of dimethyl sulfoxide was added. The absorbance at 570 nm was then measured by FLUOstar OPTIMA equipment (BMG, LABTECH GmbH, Germany). The percentage of inhibition against different dosages of CuB were plotted using the Prism software and the 50% inhibition concentration (IC50) were obtained. […]

Panc 10.05 = assay: MTT cell cytotoxicity assay, Panc 10.05; assay type: cell-based; conditions: Homo sapiens, Panc1005, 48 hours
Method: as §1, §2

[1] = tested on: HL60 cells and U937 cells; assay: Cytocentrifuged, fixed and stained cells (multinucleation); assay type: cell-based, human; conditions: 1×10^−8 M or 5×10^−8 M, 96 hours
Method: HL60 cells, as depicted in FIGS. 13A to 13C, and U937 cells, as depicted in FIGS. 13D to 13F, were cytocentrifuged, fixed and stained. Cells were treated with either 1×10^−8 M (FIGS. 13B, 13C and 13E) or 5×10^−8 M (FIG. 13F) cucurbitacin B for 96 hours, and compared with diluent treated control cells (FIGS. 13A and […]).

HepG2 = assay: Hollow fiber assay, HepG2; assay type: in vivo, nude mice; conditions: 0.2 mg/kg, i.p., s.c. and p.o., up to 14 days
Method: The hollow fiber assay (HFA) was developed by the NCI as a high-throughput, preliminary in vivo screening assay for the evaluation of anti-cancer agents. Human liver cancer cell lines HepG2 and HepG2-resistant (HepG2-R) were in vitro cultured inside hollow fibers for a short term (48 hours), followed by in vivo implantation at s.c. sites of the nude mice. Mice were treated with negative control (0.5% CMC), positive control (10 mg/kg 5-Fluorouracil) and cucurbitacin B (0.2 mg/kg) for up to 14 days. Then the fibers were excised and analyzed for cell viability by MTT assay. The efficacies of cucurbitacin B against HepG2 and HepG2-R were expressed as the percentage of the results obtained in the negative control group.

[2] = tested on: Human cancer cell lines from the 59-NCI Cancer Cell Line Panel; assay type: cell-based
[3] = tested on: human pancreatic cancer cell line SW; assay: MTT cell cytotoxicity assay, SW pancreatic cancer cell line; assay type: cell-based; conditions: 48 hours
Method: A human pancreatic cancer cell line SW was purchased from Institute of Biochemistry and Cell Biology, Shanghai Institutes for Biological Sciences, Chinese Academy of Sciences (SIBCB, CAS, China). SW cell was grown in RPMI 1640 medium supplemented with 10% FBS and maintained in a humidified 5% CO2 atmosphere at 37° C. and the culture medium was changed once in 2 days.
The cytotoxic effect of CuB on SW cell was determined using MTT (3-[4,5-dimethylthiazol-2-yl]-2,5-diphenyl tetrazolium bromide) labeled cell cytotoxicity assay. A total of 1×10^4 cells were seeded into a 96-well plate for 24 hours prior to cucurbitacin B (CuB) treatment. They were then treated with different dosages of CuB for 48 hours. After the treatment, 20 μl of MTT (5 mg/ml) was added to each well and incubated for 4 hrs. Then the medium was discarded and 100 μl of dimethyl sulfoxide was added. The absorbance at 570 nm was then measured by FLUOstar OPTIMA equipment (BMG, LABTECH GmbH, Germany). The percentage of inhibition against different dosages of CuB were plotted using the Prism software and the 50% inhibition concentration (IC50) were obtained.

Which “activation (phosphorylation) of c-Raf, Mek1/2, Erk1/2 and Elk-1” value (Raf/Mek/Erk pathway; 5 minutes treatment) does the source give for `CC(=O)OC(C)(C)/C=C/C(=O)[C@](C)(O)C1[C@H](O)C[C@@]2(C)C3CC=C4C(C[C@H](O)C(=O)C4(C)C)[C@]3(C)C(=O)C[C@]12C` (stereo partly drawn) [cucurbitacin B] here?
The value was “significantly inhibited; also recorded: significant disruption”.

What about the “inhibition of the Raf/Mek/Erk pathway” value (Raf/Mek/Erk pathway; 4 hours) of the same compound?
The value was “Complete inhibition”.

What about the GI50 (Panc 02.13) of the same compound?
Its GI50 is 5.13 µM.

And the GI50 (Panc 10.05)?
Its GI50 is 5.81 µM.

And the “cell morphology (multinucleation)” value [1]?
The value was “enlarged, multinucleated cells”.

What about the “cell growth in hollow fibers” value (HepG2) of the same compound?
The value was “potently inhibited”.

And the “cell lines with G2/M arrest” value [2]?
The value was 6 out of 18.

What about the cell cycle effect ([2]; HL60 (TB), 48 hours) of the same compound?
The cell cycle effect was “G2/M arrest and endoreduplication”.

And the IC50 [3]?
The IC50 was roughly 0.274 µM.
